The values that follow come from BindingDB's records for patent US11566007 (Revolution Medicines, 2023).

GTPase KRas [G12C], sequence (P01116 whole entry G12C, canonical isoform): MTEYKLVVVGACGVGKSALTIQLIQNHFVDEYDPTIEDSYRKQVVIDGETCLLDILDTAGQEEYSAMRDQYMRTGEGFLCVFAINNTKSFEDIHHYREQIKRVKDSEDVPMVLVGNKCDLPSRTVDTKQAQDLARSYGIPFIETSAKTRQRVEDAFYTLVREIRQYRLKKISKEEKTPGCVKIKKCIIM

This assay addresses GTPase KRas [G12C] (Homo sapiens, UniProt P01116, G12C). Description: Biochemical Assay. An excerpt: The purpose of this biochemical assay is to measure the ability of test compounds to covalently label nucleotide-loaded K-Ras isoforms. […] Analysis of raw data may be carried out using Waters MassLynx MS software, with % bound calculated from the deconvoluted protein peaks for labeled and unlabeled K-Ras.
In general, IC50 refers to the concentration that gives 50% inhibition. A high value points to lower potency. Take `C=CC(=O)N1CCC(C(=O)N(C)[C@H](C(=O)N[C@H]2Cc3cc(O)cc(c3)-c3ccc4c(c3)c(c(-c3ccccc3CCOC)n4CC)CC(C)(C)COC(=O)[C@@H]3CCCN(N3)C2=O)C(C)C)CC1` [US11566007, Example A14]: the IC50 result is “in the range around 550 nM”. Consider `C=CC(=O)N1C[C@H](C)[C@H](C(=O)N(C)[C@H](C(=O)N[C@H]2Cc3cc(O)cc(c3)-c3ccc4c(c3)c(c(-c3cccnc3COC)n4CC)CC(C)(C)COC(=O)[C@@H]3CCCN(N3)C2=O)C(C)C)C1` [US11566007, Example A56], for which the IC50 entry is “in the range around 55 nM”. Take `C=CC(=O)N1CC[C@@]2(CCCN([C@H](C(=O)N[C@H]3Cc4cc(O)cc(c4)-c4ccc5c(c4)c(c(-c4ccccc4CCOC)n5CC)CC(C)(C)COC(=O)[C@@H]4CCCN(N4)C3=O)C(C)C)C2=O)C1` [US11566007, Example A63]: the IC50 entry was “in the range around 550 nM”. `C=CC(=O)N1CCC(F)(C(=O)N(C)[C@H](C(=O)N[C@H]2Cc3cc(O)cc(c3)-c3ccc4c(c3)c(c(-c3ccccc3CN(C)C)n4CC)CC(C)(C)COC(=O)[C@@H]3CCCN(N3)C2=O)C(C)C)CC1` [US11566007, Example A20]: the IC50 entry was “in the range around 55 nM”. The same measure for `C=CC(=O)N1C[C@H](C)[C@H](C(=O)N(C)[C@H](C(=O)N[C@H]2Cc3cc(O)cc(c3)-c3ccc4c(c3)c(c(-c3ccccc3CN(C)C)n4CC)CC(C)(C)COC(=O)[C@@H]3CCCN(N3)C2=O)C(C)C)C1` [US11566007, Example A52]: “in the range around 55 nM”. With `C=CC(=O)N1CC[C@H](C(=O)N(C)[C@H](C(=O)N[C@H]2Cc3cc(O)cc(c3)-c3ccc4c(c3)c(c(-c3ccccc3[C@@H](C)OC)n4CC)CC(C)(C)COC(=O)[C@@H]3CCCN(N3)C2=O)C(C)C)C1` [US11566007, Example A29], the half-maximal inhibitory concentration (IC50) entry is “in the range around 55 nM”. `C=CC(=O)N1CC2(CCN([C@H](C(=O)N[C@H]3Cc4cc(O)cc(c4)-c4ccc5c(c4)c(c(-c4ccccc4CCOC)n5CC)CC(C)(C)COC(=O)[C@@H]4CCCN(N4)C3=O)C(C)C)C2=O)C1` [US11566007, Example A31]: the half-inhibitory concentration (IC50) result is “in the range around 55 nM”. For the compound `C=CC(=O)N1CC[C@H](C(=O)N(C)[C@H](C(=O)N[C@H]2Cc3cc(OC(=O)CCN4CCN(C)CC4)cc(c3)-c3ccc4c(c3)c(c(-c3ccccc3CCOC)n4CC)CC(C)(C)COC(=O)[C@@H]3CCCN(N3)C2=O)C(C)C)C1` [US11566007, Example A7], the IC50 entry was “in the range around 550 nM”.

Regarding `C=CC(=O)N1CC[C@H](C(=O)N(C)[C@H](C(=O)N[C@H]2Cc3cc(O)cc(c3)-c3ccc4c(c3)c(c(-c3ccc(CN5CC[C@@H](O)C5)cc3)n4CC)CC(C)(C)COC(=O)[C@@H]3CCCN(N3)C2=O)C(C)C)C1` [US11566007, Example A1], the IC50 entry was “in the range around 550 nM”. The entry for `C=CC(=O)N1C[C@H](C)[C@H](C(=O)N(C)[C@H](C(=O)N[C@H]2Cc3cc(O)cc(c3)-c3ccc4c(c3)c(c(-c3ccccc3CN(C)C)n4CC)CC(C)(C)COC(=O)[C@@H]3CCCN(N3)C2=O)C2CCCC2)C1` [US11566007, Example A43] is “in the range around 55 nM”; for `C=CC(=O)N1CC[C@H](C(=O)N(C)[C@H](C(=O)N[C@H]2Cc3cc(O)cc(c3)-c3ccc4c(c3)c(c(-c3ccccc3OC)n4CC)CC(C)(C)COC(=O)[C@@H]3CCCN(N3)C2=O)C(C)C)C1` [US11566007, Example A17] it is “in the range around 550 nM”. As to `C=CC(=O)N1C[C@H](C)[C@H](C(=O)N(C)[C@H](C(=O)N[C@H]2Cc3cc(O)cc(c3)-c3ccc4c(c3)c(c(-c3cccnc3COC)n4CC)CC(C)(C)COC(=O)[C@@H]3CCCN(N3)C2=O)C2CCCC2)C1` [US11566007, Example A57], the concentration for half-maximal inhibition (IC50) entry is “in the range around 55 nM”. Regarding `C=CC(=O)N1CC[C@H](C(=O)N(C)[C@H](C(=O)N[C@H]2Cc3cc(O)cc(c3)-c3ccc4c(c3)c(c(-c3cccnc3COCC)n4CC)CC(C)(C)COC(=O)[C@@H]3CCCN(N3)C2=O)C(C)C)C1` [US11566007, Example A44], the half-maximal inhibitory concentration (IC50) result is “in the range around 55 nM”.
